Assay results taken from ChEMBL document CHEMBL3044682, “QSAR modeling of bifunctional quinolonyl diketo acid derivatives as integrase inhibitors” (Med Chem Res, 2012).

Molecular target: Human immunodeficiency virus type 1 integrase (Human immunodeficiency virus 1, UniProt Q7ZJM1)
Assay: Inhibition of Human immunodeficiency virus 1 integrase strand transfer activity

Sequence of Human immunodeficiency virus type 1 integrase (Q7ZJM1 whole entry): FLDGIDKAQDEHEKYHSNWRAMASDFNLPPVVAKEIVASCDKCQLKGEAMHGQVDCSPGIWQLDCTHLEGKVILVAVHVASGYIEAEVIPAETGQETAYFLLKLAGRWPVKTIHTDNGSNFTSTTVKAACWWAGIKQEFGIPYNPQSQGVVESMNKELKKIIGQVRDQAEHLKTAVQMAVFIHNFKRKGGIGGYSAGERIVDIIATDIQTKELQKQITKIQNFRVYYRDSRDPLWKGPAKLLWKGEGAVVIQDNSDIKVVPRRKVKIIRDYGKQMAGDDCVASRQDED

Row | Compound | IC50 [nM]
1 | O=C(O)/C(O)=C/C(=O)c1ccc2[nH]cc(C(=O)/C=C(\O)C(=O)O)c(=O)c2c1 | 430
2 | CCOC(=O)/C(O)=C/C(=O)c1cn(Cc2cccc(F)c2)c2ccccc2c1=O [RDS-1624] | 326
3 | Cc1cccc(/C=C/c2ccc3ccc(C(=O)O)c(O)c3n2)c1C | 60.6
4 | O=C(O)/C(O)=C/C(=O)c1ccc2c(c1)c(=O)c(C(=O)O)cn2Cc1ccc(F)cc1 [13, RDS-1607] | 1090
5 | O=C(O)/C(O)=C/C(=O)c1cn(Cc2cccc(F)c2)c2ccccc2c1=O | 31.3

The remaining compounds from weak to strong by IC50, led by results:

Row | IC50 [nM] | Compound
6 | 12 | O=C(O)/C(O)=C/C(=O)c1ccc2c(c1)c(=O)c(C(=O)/C=C(\O)C(=O)O)cn2-c1ccccc1
7 | 7.2 | CC[C@@H](CO)n1cc(CO)c(=O)c2cc(Cc3ccccc3F)c(OC)cc21
